Here are results for eight compounds from ChEMBL document CHEMBL1147246, “Flavonoids from Dalbergia louvelii and their antiplasmodial activity” (J Nat Prod, 2003).

The structures appear in SMILES notation. The source made the active and inactive calls. No cut-off for these calls is given here.

The subject of the test is Plasmodium falciparum. Briefly: Antiplasmodial activity after 18 hrs against chloroquine-resistant Plasmodium falciparum FcB1 in human blood by [3H]hypoxanthine uptake. Format: functional, organism-based.
As usually defined, the IC50 is the concentration needed to halve the response being measured. A higher IC50 goes with a need for much substance. Compound `O=C(/C=C/c1ccc(O)cc1)c1ccc(O)cc1O` [ISOLIQUIRITIGENIN] displayed an IC50 of 7.8 µM.

With `COC1=CC(=O)C(O)=CC12CCCc1cc(O)ccc12` (stereo not drawn), the result was inactive.

Take `C=C[C@@H](C1=CC(=O)C(OC)=CC1=O)c1ccccc1`: the midpoint of inhibition, the IC50, lay at 5.8 µM.

For the compound `COc1cc(O)c([C@@H]2COc3cc(O)ccc3C2=O)cc1OC`, the outcome was inactive.

On to `COc1cc(CCCc2cccc(O)c2)c(OC)cc1O`, for which the result was inactive.

`COc1cc2c(cc1O)[C@@H](C)[C@H](c1ccccc1)O2` [OBTUSAFURAN] yielded an IC50 of 8.7 µM.

As to `COc1cc(-c2cc3ccc(O)cc3oc2=O)c(O)cc1O`, the outcome was inactive.

`COc1cc(-c2coc3cc(O)ccc3c2=O)ccc1O` gave an IC50 of 6.8 µM.
